Data on two molecules can be found in US20120225093A1, “Abrogating HIV-1 Infection via Drug-Induced Reactivation of Apoptosis” (UNIVERSITY OF MEDICINE AND DENTISTRY OF NEW JERSEY, priority 2010, published 2012).

Assay [1] relates to H9-HIV cells. Put plainly: Apoptosis in H9-HIV cells: annexin V binding, cell diameter, cell survival. To be noted: CPX 30 μM, DEF 200 μM; for increase in annexin-V binding, 7-AAD-negative cell population: by 24 hr. Format: cell-based. As for the experimental part: Uninfected and uniformly HIV-1 (HTLV-IIIB) infected H9 cells, obtained from the NIH AIDS Research and References Reagent Program, were cultured at 37° C. in a humidified atmosphere (5% CO2, 95% humidity) using RPMI 1640 medium supplemented with 2 mM L-glutamine, […], […] and 20% fetal calf serum.
Viability, diameter, and cell number of PBMCs and H9 cells were measured by computerized image analysis of trypan blue exclusion (VI-CELL™; Beckman Coulter; Fullerton, Calif.). PBMCs were counted with an automated, multi-parameter hematology analyzer (CELL-DYN™; Abbott Laboratories, Abbott Park, Ill.).
(§1) The potential across the mitochondrial membrane of live cells was determined flow-cytometrically with the lipophilic cationic fluorochrome JC-1 (5,5′,6,6′-tetrachloro-1,1′,3,3′-tetraethylbenzimidazolcarbocyanine iodide) immediately after sample harvest (BD™ Mitoscreen Kit, BD Biosciences; San Diego, Calif.). DNA fragmentation was quantified flow-cytometrically, using a TUNEL (terminal deoxynucleotide transferase dUTP nick end-labeling) assay (APO-BRDU™; Phoenix Flow Systems; San Diego, Calif.) and a dual-color assay for annexin V binding and 7-AAD exclusion (Annexin V-PE 7-AAD Apoptosis Detection Kit I™; BD Biosciences Pharmingen, San Jose, Calif.). The apoptotic volume decrease of cells was assessed by the reduction of their diameter (VI-CELL™; Beckman Coulter; Fullerton, Calif.).
First, whether both drugs elicit apoptosis in H9-HIV cells was determined. The cells were exposed to CPX or DEF, and annexin-V binding, cell diameter and cell survival were assayed in a time-dependent manner. By 24 hr, drug treatment elicited a ˜5-fold increase in the percentage of the 7-AAD-negative cell population capable of binding annexin-V to exposed membrane phospholipid phosphatidylserine, with little further increase at 48 hr (FIG. 8A). Both drugs elicited a decrease in mean cell diameter of ˜15% within 24 hr and ˜30% within 48 hr, indicating volume constriction characteristic of apoptosis but not necrosis (FIG. 8B). Concomitantly, cell survival decreased ˜2 fold at 24 hr and ˜5 fold at 48 hr (FIG. 8C).

The next assay deals with T1, eIF5A:DHS complex (Homo sapiens, UniProt P49366).
T1 construct: expressed in transfected cells; host or cells: 293T cells (FLAG-DHS transfected, eIF5A endogenous)
T1 sequence (P49366 1-369): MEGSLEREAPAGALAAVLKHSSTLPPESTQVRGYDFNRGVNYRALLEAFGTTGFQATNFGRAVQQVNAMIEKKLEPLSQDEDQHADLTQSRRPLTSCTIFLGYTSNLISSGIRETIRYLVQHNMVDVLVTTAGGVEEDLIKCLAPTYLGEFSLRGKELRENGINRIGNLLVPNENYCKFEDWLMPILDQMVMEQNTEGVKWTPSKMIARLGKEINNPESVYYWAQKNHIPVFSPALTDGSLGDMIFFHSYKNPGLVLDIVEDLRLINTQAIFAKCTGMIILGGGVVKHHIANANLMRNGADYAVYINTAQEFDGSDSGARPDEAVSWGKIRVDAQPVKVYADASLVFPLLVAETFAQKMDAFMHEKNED
Put plainly: Co-immunoprecipitation of eIF5A with DHS from 293T cell extracts. In kind it is cell-based. The note with it: 293T transfected with FLAG-DHS. The method, then: Immunoprecipitation and immunoblotting experiments were carried out as described previously in Hoque et al. Mol Cell Biol 2003, 23:1688-1702.
eIF5A forms tight complexes with its modifying enzymes. Unmodified eIF5A (lysine-50) immunoprecipitates with DHS and deoxyhypusyl-eIF5A interacts with DOHH in vitro. It was discovered that the deoxyhypusyl-eIF5A:DOHH complex formed in vivo can be detected by immunoprecipitation from cell extracts. Taking advantage of this finding, the effects of the drugs on the enzyme-substrate interaction were tested. FLAG-eIF5A was expressed in 293T cells and complexes that immunoprecipitated with anti-FLAG antibody were immunoblotted and probed with antibodies against DOHH. […] As a further control, the DHS inhibitor GC7 was included in this assay. […] As expected, none of the compounds affected the immunoprecipitation of FLAG-eIF5A (FIG. 2D, middle panel) or the expression of endogenous eIF5A (FIG. 2D, bottom panel). Reciprocally, the interaction between endogenous eIF5A and tagged DOHH was inhibited by CPX and DEF (FIG. 2E, right). Similarly, the interaction of endogenous eIF5A with tagged DHS was inhibited by GC7 (FIG. 2E, left) but resistant to CPX and DEF. It is concluded that CPX and DEF, but not P2 or DFOX, target DOHH and inhibit its interaction with its substrate, deoxyhypusylelF5A.

Assay [2] has as its system CMV immediate early promoter. Nature of the assay: CMV promoter-driven luciferase (pCMV-Ren, pCMV-FF) in 293T cells. The note with it: for CMV-driven Renilla luciferase expression: pCMV-Ren. Format: cell-based, cytomegalovirus. The method, then: Plasmids were introduced into 2×10^5 293T cells by transfection using Lipofectamine 2000 (Invitrogen) according to the manufacturer's instructions. Compounds (such as CPX or DEF) were added simultaneously. Cells were harvested at 12 hr post-transfection, washed with PBS, lysed in 0.15 ml of 1× passive lysis buffer (Promega), and assayed for luciferase activity using the Promega dual luciferase reporter system according to the manufacturer's instructions. Jurkat cells (1×10^6 cells) were transfected using FuGENE 6 (Roche) according to the manufacturer's instructions and assayed in a similar fashion after pelleting.
293T cells were selected as a model system to explore the relationship between the drugs, eIF5A and HIV gene expression. These cells efficiently transcribe HIV-1 genes from molecular clones as well as subviral constructs, allowing for early detection of changes in HIV gene expression. To establish the system, assays were carried out to examine the effect of CPX and DEF on the expression of firefly luciferase (FF) from the HIV-1 molecular clone, pNL4-3-LucE-, engineered to carry the FF gene in place of the viral nef gene. The molecular clone was transfected into 293T cells together with the pCMV-Ren vector that expresses Renilla luciferase (Ren) from the cytomegalovirus (CMV) immediate early promoter as a control for transfection efficiency and non-specific effects of the compounds. Dual luciferase assays were conducted at 12 hr post-transfection and results are expressed as relative luciferase activity (FF:Ren). […] Assays therefore were carried out to characterize the action of CPX and DEF on eIF5A and HIV gene expression in 293T cells during the first 12 to 24 hr of drug treatment.

Assay [3] relates to H9-HIV cells. Nature of the assay: Mitochondrial membrane potential (JC-1) in H9-HIV cells. Format: cell-based. The note with it: for Δψ collapse at low drug concentrations: 5 and 15 μM CPX, 50 and 100 μM DEF; for collapse of Δψ, infected versus uninfected cells: 24 hr, 30 μM CPX, 200 μM DEF. As for the experimental part: as §1
Next the effect of the drugs on apoptosis in H9 and H9-HIV cells was examined. Both CPX and DEF increased the collapse of Δψ in a manner that was dose-dependent and accentuated by viral infection (FIGS. 8E and F). […] Thus, exposure to CPX or DEF counteracted the HIV-mediated reduction of Δψ collapse and rendered infected cells more susceptible than uninfected cells to an early step in drug-induced apoptosis.

Take `Cc1cc(C2CCCCC2)n(O)c(=O)c1` [CPX, 6-cyclohexyl-1-hydroxy-4-methylpyridin-2[1H]-one]: the “decrease in cell survival” value in the assay with H9-HIV cells [1] (at 24 hr) is on record as approximately 2 fold. Further, the “decrease in cell survival” value in the assay on H9-HIV cells [1] (at 48 hr) is reported as approximately 5 fold. The “increase in annexin-V binding, 7-AAD-negative cell population” value in the assay on H9-HIV cells [1] is reported as approximately 5 fold. Moreover, the “decrease in mean cell diameter” value in the assay on H9-HIV cells [1] (within 24 hr) is listed as approximately 15%. In the assay on H9-HIV cells [1] (within 48 hr), the “decrease in mean cell diameter” value is recorded as approximately 30%. The “interaction of endogenous eIF5A with tagged DHS” value on eIF5A:DHS complex is given as “resistant”. Also, in assay [2], the “expression from pCMV-FF (construct I)” value is reported as “unaffected” and the “CMV-driven Renilla luciferase expression” value is reported as “no effect on CMV-driven Renilla luciferase expression”. For the same molecule, in the assay with H9-HIV cells [3], the “Δψ collapse at low drug concentrations” value is on record as “enhanced Δψ collapse even at low drug concentrations” and the “collapse of Δψ, infected versus uninfected cells” value is “significantly increased collapse of Δψ compared to uninfected cells”.
In the case of `Cc1c(O)c(=O)ccn1C` [DEF, 3-hydroxy-1,2-dimethylpyridin-4(1H)-one], the entries for the “decrease in cell survival” value in the assay on H9-HIV cells [1] (at 24 hr) and in the assay with H9-HIV cells [1] (at 48 hr) were approximately 2 fold and approximately 5 fold, respectively. In addition, in the assay on H9-HIV cells [1], the “increase in annexin-V binding, 7-AAD-negative cell population” value is reported as approximately 5 fold. The results for the “decrease in mean cell diameter” value with H9-HIV cells [1] (within 24 hr) and with H9-HIV cells [1] (within 48 hr) were approximately 15% and approximately 30%, respectively. Further, on eIF5A:DHS complex, the “interaction of endogenous eIF5A with tagged DHS” value is “resistant”. In addition, in assay [2], the “expression from pCMV-FF (construct I)” value is reported as “unaffected”. Moreover, the “CMV-driven Renilla luciferase expression” value in assay [2] is reported as “no effect on CMV-driven Renilla luciferase expression”. In the assay on H9-HIV cells [3], the “Δψ collapse at low drug concentrations” value was “enhanced Δψ collapse even at low drug concentrations”. Further, the “collapse of Δψ, infected versus uninfected cells” value with H9-HIV cells [3] is recorded as “significantly increased collapse of Δψ compared to uninfected cells”.
